Tests used:
[1] = tested on: humanized sickle cell (SS) mice exposed to H/R stress; assay: SCD (SS) mice exposed to H/R stress: lung, kidney and liver histopathology; type: in vivo; set-up: key to Lung thrombi / Kidney thrombi / Liver thrombi: 0: no thrombi; +: presence of thrombi per field at the magnification ×250; details: 1000 mg/Kg/d for 6 weeks
Protocol: Lung, kidney and liver histological analysis: Paraffin-embedded tissue blocks were cut into 2-3 μm sections and mounted on adhesion microscope glass slides for Hematoxylin-Eosin (H&E), and Perls' staining for iron content. The analysis was performed on four different fields at a magnification 200×. Tissue pathological analysis, inflammatory cell infiltrate, the presence of thrombi and iron deposition were carried out by blinded pathologists as previously described.
(§1) Score for inflammatory cell infiltrate. Quantification of inflammatory cell infiltrates was expressed as the mean of cells per field at magnification of X250, as resulting by the analysis of at least 10 different fields on each hematoxylin-eosin-stained whole lung section. Data are expressed as means±SEM; * p<0.05 compared to normoxia.
Thrombi: 0: no thrombi; +: presence of thrombi per field at the magnification ×250.
Score for inflammatory cell infiltrate. Quantification of inflammatory cell infiltration in renal cortex of kidney was determined in hematoxylin-eosin-stained sections using a 0 to 4 scale based on the percentage of cell infiltrates occupied area in each filed. 0 (no sign of infiltration); 1 (1-10% of the area with cell infiltration); 2 (11-25%); 3 (26-50%); 4 […]. The mean of 15 randomly selected field were analyzed at magnification ×400. Data are expressed as means±SEM; * p<0.05 compared to normoxia; ºp<0.05 compared to vehicle. Thrombi: 0: no thrombi; +: presence of thrombi presence of thrombi per field at the magnification ×250.
as §1, with “×250,” for “X250,”, “liver” for “lung”
Thrombi: 0: no thrombi; +: presence of thrombi presence of thrombi per field at the magnification ×250.
Statistical analysis: Non-parametric Pairwise Wilcoxon Rank Sum Tests was used.

[2] = tested on: protein and lipid biomarkers of NAFLD patients; assay: Phase IIa NAFLD study: lipidomics and proteomics of blood samples; type: in vivo, human
Description: Exploratory analysis: The exploratory analysis included analysis of lipid and metabolic parameters including total cholesterol, triglycerides, very low-density lipoprotein cholesterol (VLDL-C), low density lipoprotein cholesterol (LDL-C), high density lipoprotein cholesterol (HDL-C), non-high-density lipoprotein cholesterol (non-HDL-C), remnant-like particle cholesterol (RLP-C), fasting glucose, insulin, free fatty acids and hemoglobin A1C (HbA1C). Additional exploratory analysis included high throughput lipidomics and proteomics.

[3] = tested on: NAFLD patients; assay: Phase IIa study in NAFLD patients: metabolic, glycemic, lipid and liver parameters; type: in vivo, human
Protocol: The study was planned to include 96 evaluable patients with 32 patients randomized per treatment group.
HOMA-IR/Adipo-IR: HOMA-IR/Adipo-IR levels are a method of measuring insulin resistance. HOMA-IR is calculated by multiplying fasting plasma insulin (FPI) by fasting plasma glucose (FPG), then dividing by the constant 405. Adipo-IR is calculated by multiplying fasting non-esterified fatty acids (NEFA)×fasting insulin. Blood samples were taken to assess HOMA-IR and Adipo-IR at Visit 2/Baseline, Visit 3/Week 2, Visit 4/Week 4, Visit 6/Week 8, Visit 8/Week 12, Visit 10/Week 16 and Follow up Visit 11/Week 20. All subjects were required to have been fasted for a minimum of 8 hours prior to blood sampling. If subjects had not fasted for a minimum of 8 hours, the duration of fasting time was recorded, and subjects encouraged to fast appropriately for the next clinical visit.
Liver stiffness and CAP: Liver stiffness and CAP were assessed using transient elastography (e.g., FibroScan® 502 Touch model or equivalent). Patients were fasted and scanned at the same time of the day, if possible, for baseline (Week 0) and Visit 10 (Week 16). For this assessment the following conditions were met: patients were lying in dorsal decubitus position with the right arm in maximal abduction behind the head, in a similar position to that used for liver biopsy (LB); the tip of the transducer was placed on the skin between the ribs over the right lobe of the liver (the physician took the measurements with the probe placed in the intercostal space); during the FibroScan® examination the choice of M+ or XL+ probe was determined by the Automatic Probe Selection tool (APS) (If, the APS tool advises to use the “XL+ probe” or “switch” continuously between “M+ and XL+ probe”, only the XL+ probe was used); and the operator, assisted by an ultrasonic time motion image, located a portion of the liver which is free of large vascular structures (the depth of measurement was between 35-75 mm for the XL+ probe and 25-65 mm for the M+ probe and the explored volume will be 3 cm^3). For each patient, the operator performed an examination including at least 10 valid measurements or a maximum of 20 attempts, with the XL+ or M+ probe, at the same spot. The entire examination lasted no more than 10-15 minutes. The final stiffness and CAP values was recorded as median values of valid measurements.
Clinical Laboratory Safety Tests: Safety tests were performed for hematology, serum biochemistry, coagulation, lipid profile, and urinalysis: Blood and urine samples were taken as per the Study Flow Chart in Table 19 for routine hematology, serum biochemistry, coagulation and urinalysis tests, along with a Lipid Profile. All samples were analyzed in the central laboratory. All subjects were fasted for a minimum of 8 hours prior to blood sampling. If subjects had not fasted for a minimum of 8 hours, the duration of fasting time was recorded, and subjects encouraged to fast appropriately for the next clinical visit. • Hematology: Full blood count to include red cell count, hemoglobin, hematocrit, white cell count, differential white cell count, platelet count and reticulocyte count. • Serum biochemistry: Urea (blood urea nitrogen; BUN), creatinine, uric acid, total bilirubin, Indirect and Direct Bilirubin, sodium, bicarbonate potassium, phosphorus, calcium chloride, alkaline phosphatase (ALP), aspartate aminotransferase (AST), alanine aminotransferase (ALT), ALT/AST ratio, lactate dehydrogenase (LDH), creatine phosphokinase (CPK), albumin, total protein, cholesterol, triglycerides, glucose, C-reactive protein (CRP). • Coagulation: prothrombin time (PT), international normalized ratio (INR) and activated partial […]. • Lipid Profile: LDL, HDL, and VLDL-C. • Urinalysis: pH, protein, glucose, blood, ketones, leukocytes, leukocyte esterase, bilirubin, specific gravity, urobilinogen and nitrate. […]

Structure (SMILES): CC/C=C\C[C@H](O)/C=C/C=C\C/C=C\C/C=C\CCCC(=O)OCC [DS102, 15(S)-hydroxy-(5Z,8Z,11Z,13E,17Z)-eicosapentaenoic acid ethyl ester]
- Kidney thrombi ([1]; n = 4): 0
- Liver thrombi ([1]; n = 4): 0
- Lung thrombi ([1]; n = 4): 0
- liver iron accumulation (Perls' staining) ([1]; vs vehicle): significant reduction
- thrombi formation in liver ([1]; vs vehicle): significant reduction
- expression of multiple circulating chemokines [2]: decreased
- expression of multiple proteins associated with increased cardiovascular risk [2]: decreased
- expression of multiple tumor necrosis factor receptor superfamily members [2]: decreased
- expression of multiple vascular adhesion molecules [2]: decreased
- TR (transferrin receptor protein 1) ([2]; 1 g): significant reductions
- NASH drug development targets (CCR2/5 signaling, Galectin3, AOC3) ([2]; 2 g): decreased
- levels of multiple glycerophospholipid groups ([2]; 2 g): significantly increased
- levels of multiple hepatotoxic diglycerides ([2]; 2 g): significantly decreased
- inflammatory and pro-fibrotic proteins (Table 19: PAI-1, TIMP-1, DPP4, TLT2, CCL16, MCP-1, SAA4, PI3/Elafin, TR, LILRB1, TNRSF11A) ([2]; 2 g, Bonferroni and Benjamini-Hochberg testing): decreased
- number of markers (inflammation, fibrosis, lipid metabolism, apoptosis, chemotaxis) with significantly downregulated expression ([2]; 2 g, panel of greater than 350 protein biomarkers): over 150
- hepatic fat content as assessed by CAP [3]: reduced
- insulin sensitivity and glycemic control ([3]; 1 g or 2 g per day, 16 weeks): improvement
- markers of metabolic overload ([3]; 1 g or 2 g per day, 16 weeks): statistically significant reduction
- insulin resistance indices (HOMA-IR and adipo-IR levels) ([3]; 1 g or 2 g per day, Week 16): improvement
- glycemic control (HbA1c levels) ([3]; 1 g or 2 g per day, baseline to Week 16, dose-dependent): clinically significant improvements
- insulin, glucose, and free fatty acid levels ([3]; 1 g or 2 g per day, baseline to Week 16 vs placebo): reduction
- alkaline phosphate (ALP) ([3]; 2 g): reduced
- Triglycerides (median placebo-corrected % change from baseline) ([3]; 2 g, Week 16, Full Analysis Set): −40.2%
- insulin resistance indices (HOMA-IR and adipo-IR levels) ([3]; 2 g, Week 16, Per Protocol Set (PPS)): significant improvements
- Triglycerides (median placebo-corrected % change from baseline) ([3]; 2 g, Week 16, Subgroup: High Triglycerides (>200 mg/dL)): −20.4%
- Triglycerides (median placebo-corrected % change from baseline) ([3]; 2 g, Week 16, Subgroup: Triglycerides > Upper Limit Normal (>150 mg/dL)): −39.0%
- lipid profile (total cholesterol, VLDL-C, non-HDL-C, RLP cholesterol, triglyceride levels) ([3]; Week 16, safety analysis set (SAS)): significantly improved
